What was measured:
Experiment in all cases: Radiometric kinase assay (Reaction Biology HotSpot)
Type in all cases: biochemical
[1] = target: T1, BTK (Homo sapiens, UniProt Q06187); conditions: [ATP] = 10 μM; for remaining activity at 0.2 µM: read-out: Residual Activity @ 200 nM, BTK
T1 construct: purchased Reaction Biology Corporation
Experimental: (§1) If not mentioned differently, in vitro profiling of compounds was performed at Reaction Biology Corporation using the HotSpot™ assay platform.

[2] = target: T2, TEC (Homo sapiens, UniProt P42680); conditions: [ATP] = 10 μM; for remaining activity at 0.2 µM: 200 nM compound, duplicate mean, read-out: Residual Activity @ 200 nM, TEC
T2 construct: purchased Reaction Biology Corporation
T2 sequence (P42680 1-631): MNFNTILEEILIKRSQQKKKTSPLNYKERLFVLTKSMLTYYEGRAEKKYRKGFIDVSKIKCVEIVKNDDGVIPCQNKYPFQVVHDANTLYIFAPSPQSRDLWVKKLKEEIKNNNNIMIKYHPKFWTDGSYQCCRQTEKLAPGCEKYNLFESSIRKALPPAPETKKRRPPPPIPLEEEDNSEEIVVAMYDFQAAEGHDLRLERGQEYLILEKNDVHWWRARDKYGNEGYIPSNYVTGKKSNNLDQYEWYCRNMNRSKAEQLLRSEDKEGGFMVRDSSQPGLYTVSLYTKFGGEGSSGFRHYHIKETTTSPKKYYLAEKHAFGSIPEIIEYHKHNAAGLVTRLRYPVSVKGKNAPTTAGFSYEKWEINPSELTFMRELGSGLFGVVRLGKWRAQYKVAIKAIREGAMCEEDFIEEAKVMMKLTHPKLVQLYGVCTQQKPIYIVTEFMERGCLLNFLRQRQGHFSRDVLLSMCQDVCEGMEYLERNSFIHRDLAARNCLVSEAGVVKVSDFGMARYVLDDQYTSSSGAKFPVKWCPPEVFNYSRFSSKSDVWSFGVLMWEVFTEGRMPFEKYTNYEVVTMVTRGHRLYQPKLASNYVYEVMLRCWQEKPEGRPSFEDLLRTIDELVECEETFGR
Experimental: as §1

[3] = target: T3, MKK7 (Homo sapiens, UniProt O14733); conditions: 200 nM compound, duplicate mean, [ATP] = 10 μM; read-out: Residual Activity @ 200 nM, MKK7
T3 construct: purchased Reaction Biology Corporation
T3 sequence (O14733 1-419): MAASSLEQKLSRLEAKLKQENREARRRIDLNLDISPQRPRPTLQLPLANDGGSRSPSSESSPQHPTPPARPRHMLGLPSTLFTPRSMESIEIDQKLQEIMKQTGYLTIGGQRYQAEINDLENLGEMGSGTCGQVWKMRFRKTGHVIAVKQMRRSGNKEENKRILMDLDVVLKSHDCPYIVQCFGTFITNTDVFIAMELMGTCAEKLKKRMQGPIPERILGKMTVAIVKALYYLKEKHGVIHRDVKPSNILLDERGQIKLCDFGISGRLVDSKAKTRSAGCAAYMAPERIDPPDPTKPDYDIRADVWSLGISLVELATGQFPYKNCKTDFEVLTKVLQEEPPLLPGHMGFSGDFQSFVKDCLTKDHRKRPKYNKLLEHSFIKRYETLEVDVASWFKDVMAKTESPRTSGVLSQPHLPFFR
Experimental: as §1

[4] = target: T4, TXK (Homo sapiens, UniProt P42681); conditions: for remaining activity at 0.2 µM: read-out: Residual Activity @ 200 nM, TXK; for IC50: five-dose singlicate
T4 construct: purchased Reaction Biology Corporation
T4 sequence (P42681 1-527): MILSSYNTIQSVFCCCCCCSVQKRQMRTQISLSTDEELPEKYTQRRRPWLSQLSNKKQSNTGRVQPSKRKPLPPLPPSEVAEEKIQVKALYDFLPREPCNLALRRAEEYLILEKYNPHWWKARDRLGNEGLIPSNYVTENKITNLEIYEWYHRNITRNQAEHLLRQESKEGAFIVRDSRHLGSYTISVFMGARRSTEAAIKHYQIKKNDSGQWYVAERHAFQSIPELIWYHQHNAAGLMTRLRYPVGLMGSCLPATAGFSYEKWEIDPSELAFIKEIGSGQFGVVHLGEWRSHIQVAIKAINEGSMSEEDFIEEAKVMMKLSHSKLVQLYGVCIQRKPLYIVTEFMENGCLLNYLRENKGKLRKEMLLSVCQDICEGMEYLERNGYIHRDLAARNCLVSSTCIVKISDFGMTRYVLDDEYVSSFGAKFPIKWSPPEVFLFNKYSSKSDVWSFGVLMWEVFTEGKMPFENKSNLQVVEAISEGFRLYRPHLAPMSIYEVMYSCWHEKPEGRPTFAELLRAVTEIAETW
Experimental: as §1

[5] = target: T5, BMX (Homo sapiens, UniProt P51813); conditions: [ATP] = 10 μM; for remaining activity at 0.2 µM: 200 nM compound, duplicate mean, read-out: Residual Activity @ 200 nM, BMX; for IC50: radiometric HotSpot, five-dose singlicate
T5 construct: purchased Reaction Biology Corporation
T5 sequence (P51813 1-675): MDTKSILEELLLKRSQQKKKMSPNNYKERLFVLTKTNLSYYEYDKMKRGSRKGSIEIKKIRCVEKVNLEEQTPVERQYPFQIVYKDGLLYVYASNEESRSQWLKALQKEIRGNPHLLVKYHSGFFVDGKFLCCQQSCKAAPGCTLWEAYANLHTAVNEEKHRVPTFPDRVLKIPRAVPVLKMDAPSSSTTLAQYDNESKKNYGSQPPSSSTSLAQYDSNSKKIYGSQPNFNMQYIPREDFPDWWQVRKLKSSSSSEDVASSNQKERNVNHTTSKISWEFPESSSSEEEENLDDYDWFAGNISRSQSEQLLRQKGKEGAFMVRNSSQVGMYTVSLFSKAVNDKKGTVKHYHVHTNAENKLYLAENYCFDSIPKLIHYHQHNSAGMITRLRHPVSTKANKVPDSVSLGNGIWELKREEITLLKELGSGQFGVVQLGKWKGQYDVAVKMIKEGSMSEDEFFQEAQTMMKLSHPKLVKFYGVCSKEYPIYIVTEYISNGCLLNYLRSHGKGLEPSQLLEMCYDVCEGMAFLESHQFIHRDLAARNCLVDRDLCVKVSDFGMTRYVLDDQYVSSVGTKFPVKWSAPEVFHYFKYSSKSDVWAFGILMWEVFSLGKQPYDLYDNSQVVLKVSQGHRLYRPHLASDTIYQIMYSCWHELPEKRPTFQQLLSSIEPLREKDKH
Experimental: as §1

[6] = 200 nM compound, duplicate mean
[7] = radiometric HotSpot, five-dose singlicate
[8] = 200 nM compound, duplicate mean, [ATP] = 10 μM
[9] = radiometric HotSpot, [ATP] = 10 μM

T1 sequence (Q06187 whole entry): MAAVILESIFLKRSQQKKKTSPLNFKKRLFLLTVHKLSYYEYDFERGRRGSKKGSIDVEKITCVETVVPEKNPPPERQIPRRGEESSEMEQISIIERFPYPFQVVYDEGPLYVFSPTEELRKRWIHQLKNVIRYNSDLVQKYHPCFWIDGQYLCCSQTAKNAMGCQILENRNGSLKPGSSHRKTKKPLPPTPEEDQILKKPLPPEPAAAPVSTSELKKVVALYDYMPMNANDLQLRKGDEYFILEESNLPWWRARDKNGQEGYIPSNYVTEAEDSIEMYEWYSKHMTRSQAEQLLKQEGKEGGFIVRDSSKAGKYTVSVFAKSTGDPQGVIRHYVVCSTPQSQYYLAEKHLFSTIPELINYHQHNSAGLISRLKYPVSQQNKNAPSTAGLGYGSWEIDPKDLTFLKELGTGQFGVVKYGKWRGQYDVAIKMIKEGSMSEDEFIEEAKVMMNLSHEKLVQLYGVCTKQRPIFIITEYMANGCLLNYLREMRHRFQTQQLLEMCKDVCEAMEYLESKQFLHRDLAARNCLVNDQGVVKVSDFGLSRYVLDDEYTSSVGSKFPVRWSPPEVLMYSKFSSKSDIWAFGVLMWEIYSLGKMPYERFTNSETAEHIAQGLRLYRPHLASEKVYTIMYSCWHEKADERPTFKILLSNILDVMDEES

| remaining activity at 0.2 µM [1, 6] | IC50 [1, 7] | remaining activity at 0.2 µM [2] | IC50 [2, 7] | remaining activity at 0.2 µM [3] | remaining activity at 0.2 µM [4, 8] | IC50 [4, 9] | remaining activity at 0.2 µM [5] | IC50 [5] | remaining activity at 1 µM ([4]; 1 µM compound, radiometric HotSpot, read-out: residual activity at 1 µM, TXK) | Residual Activity @ 200 nM, BTK [1, 6] | Residual Activity @ 200 nM, TXK [4, 8] | SMILES |
| --- | --- | --- | --- | --- | --- | --- | --- | --- | --- | --- | --- | --- |
| 0.8% | < 1 nM | 17.2% | 13 nM | > 100% | 0.3% | 10 nM |  |  |  |  |  | C=CC(=O)Nc1cccc(-c2c[nH]c3ncc(NC(=O)c4cccs4)cc23)c1 [Compound 12c, N-(3-(3-acrylamidophenyl)-1H-pyrrolo[2,3-b]pyridin-5-yl)thiophene-2-carboxamide] |
| 70% |  | 99.2% |  |  | 89% |  |  | 582 nM |  | 69.7% | 88.8% | CCC(=O)Nc1cccc(-c2c[nH]c3ncc(NC(=O)C4CCCC4)cc23)c1 [Compound 12b, N-(3-(3-propionamidophenyl)-1H-pyrrolo[2,3-b]pyridin-5-yl)cyclopentanecarboxamide] |

Continued, compound first:

| SMILES | remaining activity at 0.2 µM [1, 6] | IC50 [1, 7] | remaining activity at 0.2 µM [2] | IC50 [2, 7] | remaining activity at 0.2 µM [3] | remaining activity at 0.2 µM [4, 8] | IC50 [4, 9] | remaining activity at 0.2 µM [5] | IC50 [5] | remaining activity at 1 µM ([4]; 1 µM compound, radiometric HotSpot, read-out: residual activity at 1 µM, TXK) | Residual Activity @ 200 nM, BTK [1, 6] | Residual Activity @ 200 nM, TXK [4, 8] |
| --- | --- | --- | --- | --- | --- | --- | --- | --- | --- | --- | --- | --- |
| C=CC(=O)Nc1cccc(-c2c[nH]c3ncc(C(N)=O)cc23)c1 [Compound 10a, 3-(3-acrylamidophenyl)-1H-pyrrolo[2,3-b]pyridine-5-carboxamide] | 18.9% |  | 42.1% |  | 28.3% | 3.2% | 28 nM | 1.6% | 29 nM |  |  |  |
| C=CC(=O)Nc1cccc(-c2c[nH]c3ncccc23)c1 [Compound 9a, N-(3-(1H-pyrrolo[2,3-b]pyridin-3-yl)phenyl)acrylamide] | 18.2% |  | 37.1% |  | 37.3% | 1.8% |  | 2.7% |  |  |  |  |
| C=CC(=O)Nc1cccc(-c2c[nH]c3ncc(C(=O)NC4CCCC4)cc23)c1 [Compound 11a, 3-(3-acrylamidophenyl)-N-cyclopentyl-1H-pyrrolo[2,3-b]pyridine-5-carboxamide] |  |  |  |  |  |  | > 1000 nM |  | 539 nM | 72% |  |  |

Reference: PMC7730235, “Discovery of a Novel Class of Covalent Dual Inhibitors Targeting the Protein Kinases BMX and BTK” (International Journal of Molecular Sciences, 2020)
